Experiments:
[1] = system: hamsters with cerebellar ataxia; assay: Rotarod test in hamsters with cerebellar ataxia; type: in vivo, hamster
Text: Since NK-4 was confirmed to have a neurodegenerative inhibitory action in Experiment 1, hamsters with cerebellar ataxia (cerebellar ataxia is called “cerebellar A” and hamsters with cerebellar ataxia are called “hamsters with cerebellar A”, hereinafter) as a suitable model for human neurodegenerative diseases (e.g., spinal cerebellar degeneration) were subjected to examine the influence of NK-4 administration on their behaviors and brain tissues. Twenty-five hamsters with natural mutation (Nna1 inhibition), which are known to lose Purkinje's cells after three-weeks of age and then induce a spontaneous onset of kinetic motor ataxia after seven-weeks of age (see Akita K. et al., “J. Neurogenetics”, Vol. 21, pp. 19-29, 2007), had been fed at Hayashibara Biochemical Laboratories., Inc., Okayama, Japan, were randomly allocated to the test groups 1 to 5, five heads in each group, as shown in Table 2. Prior to the onset of cerebellar A (at three-weeks of age), PBS was started to administer to the hamsters in the test group 1 at a dose of 10 ml/kg/day. Prior to the onset of cerebellar A (at three-weeks of age), NK-4 was started to be administered to the hamsters in the test groups 2 to 4 at a daily dose of 20 μg/kg, 100 μg/kg or 500 μg/kg. “IGF-1, human, a product name of insulin-like growth factor, commercialized by Assaypro LLC, MO, USA. These administered ingredients were intraperitoneally administered daily to hamsters once a day up to 10-weeks of age. The degree of symptom of cerebellar A and the improvement effect on the symptom by NK-4 were evaluated with an index of improvement in motor coordination of hamsters by conducting once a week the later described rotarod test and the slant tolerance test. At the age of 10-weeks, the hamsters were subjected to counting the falling down frequency and extracted their brains, which were then histologically evaluated. In parallel, the concentration of glutamic acid in the bloods and cerebrospinal fluids (CSF) of the hamsters was assayed. As a test group 6, five normal hamsters, with the same age as the hamsters with cerebellar A used in the test groups 1 to 5, were provided and tested similarly as the hamsters with cerebellar A in such a manner of intraperitoneally administering PBS to them at a dose of 10 ml/kg/day once a day up to 10-weeks of age.
As an index for coordinated movement, it was used a duration time of hamster's movement to staying on a rotarod by locomotion in synchronization with the turn of the rotarod; placing a hamster on an apparatus with a rotarod (having a diameter of 60 mm, prepared by Hayashibara Biochemical Laboratories, Inc., Okayama, Japan), turning at a constant rate of six rpm, and measuring the time until the hamster falls down from the rotarod (see Fernandez et al., “Proc. Natl. Acad. Sci. USA”, Vol. 95, pp. 1253-1258, 1998). The test was repeated six times for each hamster, where five-times of tests starting from the initiation of the test were made as a preliminary examination, and the time until each hamster fell down from the rotarod (called “falling time”, hereinafter) was measured, followed by averaging the falling times for each group consisting of five heads. The falling time was measured until 180 seconds. Based on the results, the relationship between the age and the falling time for each hamster with cerebellar A (test group 1) administered with PBS was graphed. […]
Similarly as in Experiment 2, 130 hamsters with cerebellar ataxia, born within the same week and 3-weeks of age, were randomly divided into 13 groups, consisting of 10 hamsters, respectively. […]

[2] = system: ICR mice administered with amyloid β fragment; assay: Degeneration or defect of hippocampal pyramidal cells, mouse administered with amyloid β fragment, agents of Example 1; type: in vivo; settings: 4-point grade score none (0) to severe (3), average of 10 mice; agent of Example 1, 0.3 ml/head intraperitoneally once a day up to the 8th day
Procedure: One hundred and thirty ICR mice (commercialized by Charles Liver Laboratories Japan Inc., Kanagawa, Japan) were randomly divided into 13 groups, consisting of 10 mice in each group. Amyloid β fragment, represented by an amino acid sequence of SEQ ID NO: 1, used in Experiment 3 was aged at 37° C. for four days, and administered to the lateral ventricle of each mouse in an amount of 9 nmol/6 μl/mouse (the administration method is referred to “Brain Research”, Vol. 706, pp. 181-193 (1996)). […] The mice (10 heads) in the remaining one group were intraperitoneally administered with a sterilized 10% maltose solution (pyrogen-free) once a day up to the 8th day in an amount of 0.3 ml/mouse (control). On the 8th day after the administration, novel object recognition test (see, Japanese Patent Kokai No. 2008-193941) was performed and the average discrimination index (the ratio of prolonged seeking time for novel object to the total seeking time) as a cognitive function index were shown in Table 26. On the 9th day after the administration, the brain of the mice was anatomically isolated, prepared into tissue samples in conventional manner. Depositions of aggregation of amyloid fragment were observed by staining with Congo red or thioflavin T, and degeneration or defect of hippocampal pyramidal cells concerned with cognitive function. The degeneration or the defect of hippocampal pyramidal cells was evaluated by 4-point grade score, by regarding the condition of the control without administration of amyloid β fragment as “none (O)”, “slight (1)”, “moderate (2)”, and “sever (3)”, and the average scores of 10 mice are shown in Table 20.

PC12-HS cells [3] = assay: Evaluation A: neurocyte (cell)-growth-promoting action, ALAMAR BLUE; type: cell-based, rat; settings: for Cell survival percentage (%): cell-growth promotion
PC12-HS cells [4] = assay: Evaluation B: neurite-outgrowth action in presence of NGF; type: cell-based, rat

SMILES: CCN1C=CC(=CC=C(C=Cc2cc[n+](CC)c3ccccc23)c2cc[n+](CC)c3ccccc23)c2ccccc21.[I-].[I-] [NK-4]
- Delayed days until the onset of cerebellar ataxia in hamster ([1]; 20 μg/kg body weight, 6-Weeks): 11 days
- Delayed days until the onset of cerebellar ataxia in hamster ([1]; 20 μg/kg body weight, 7-Weeks): 17 days
- Delayed days until the onset of cerebellar ataxia in hamster ([1]; 20 μg/kg body weight, 8-Weeks): 17 days
- Delayed days until the onset of cerebellar ataxia in hamster ([1]; 20 μg/kg body weight, 9-Weeks): 27 days
- Delayed days until the onset of cerebellar ataxia in hamster ([1]; 20 μg/kg body weight, 10-Weeks): 32 days
- Delayed days until the onset of cerebellar ataxia in hamster ([1]; 100 μg/kg body weight, 5-Weeks): 7 days
- Delayed days until the onset of cerebellar ataxia in hamster ([1]; 100 μg/kg body weight, 6-Weeks): 14 days
- Delayed days until the onset of cerebellar ataxia in hamster ([1]; 100 μg/kg body weight, 7-Weeks): 21 days
- Delayed days until the onset of cerebellar ataxia in hamster ([1]; 100 μg/kg body weight, 8-Weeks): 21 days
- Delayed days until the onset of cerebellar ataxia in hamster ([1]; 100 μg/kg body weight, 9-Weeks): 29 days
- Delayed days until the onset of cerebellar ataxia in hamster ([1]; 100 μg/kg body weight, 10-Weeks): 36 days
- Delayed days until the onset of cerebellar ataxia in hamster ([1]; 500 μg/kg body weight, 5-Weeks): 6 days
- Delayed days until the onset of cerebellar ataxia in hamster ([1]; 500 μg/kg body weight, 6-Weeks): 14 days
- Delayed days until the onset of cerebellar ataxia in hamster ([1]; 500 μg/kg body weight, 7-Weeks): 21 days
- Delayed days until the onset of cerebellar ataxia in hamster ([1]; 500 μg/kg body weight, 8-Weeks): 21 days
- Delayed days until the onset of cerebellar ataxia in hamster ([1]; 500 μg/kg body weight, 9-Weeks): 28 days
- Delayed days until the onset of cerebellar ataxia in hamster ([1]; 500 μg/kg body weight, 10-Weeks): 35 days
- time (sec) endured until falling from rotarod apparatus ([1]; cerebellar ataxia hamsters, 20 μg/kg body weight i.p. once a day from 3-weeks of age, 4-Weeks): 152 ± 4 s
- time (sec) endured until falling from rotarod apparatus ([1]; cerebellar ataxia hamsters, 20 μg/kg body weight i.p. once a day, 5-Weeks): 53 ± 5 s
- time (sec) endured until falling from rotarod apparatus ([1]; cerebellar ataxia hamsters, 20 μg/kg body weight i.p. once a day, 6-Weeks): 89 ± 9 s
- time (sec) endured until falling from rotarod apparatus ([1]; cerebellar ataxia hamsters, 20 μg/kg body weight i.p. once a day, 7-Weeks): 74 ± 10 s
- time (sec) endured until falling from rotarod apparatus ([1]; cerebellar ataxia hamsters, 20 μg/kg body weight i.p. once a day, 8-Weeks): 36 ± 2 s
- time (sec) endured until falling from rotarod apparatus ([1]; cerebellar ataxia hamsters, 20 μg/kg body weight i.p. once a day, 9-Weeks): 48 ± 3 s
- time (sec) endured until falling from rotarod apparatus ([1]; cerebellar ataxia hamsters, 20 μg/kg body weight i.p. once a day, 10-Weeks): 40 ± 4 s
- time (sec) endured until falling from rotarod apparatus ([1]; cerebellar ataxia hamsters, 100 μg/kg body weight i.p. once a day, 4-Weeks): 136 ± 5 s
- time (sec) endured until falling from rotarod apparatus ([1]; cerebellar ataxia hamsters, 100 μg/kg body weight i.p. once a day, 5-Weeks): 145 ± 8 s
- time (sec) endured until falling from rotarod apparatus ([1]; cerebellar ataxia hamsters, 100 μg/kg body weight i.p. once a day, 6-Weeks): 139 ± 10 s
- time (sec) endured until falling from rotarod apparatus ([1]; cerebellar ataxia hamsters, 100 μg/kg body weight i.p. once a day, 7-Weeks): 122 ± 7 s
- time (sec) endured until falling from rotarod apparatus ([1]; cerebellar ataxia hamsters, 100 μg/kg body weight i.p. once a day, 8-Weeks): 79 ± 12 s
- time (sec) endured until falling from rotarod apparatus ([1]; cerebellar ataxia hamsters, 100 μg/kg body weight i.p. once a day, 9-Weeks): 66 ± 6 s
- time (sec) endured until falling from rotarod apparatus ([1]; cerebellar ataxia hamsters, 100 μg/kg body weight i.p. once a day, 10-Weeks): 66 ± 6 s
- time (sec) endured until falling from rotarod apparatus ([1]; cerebellar ataxia hamsters, 500 μg/kg body weight i.p. once a day, 4-Weeks): 156 ± 5 s
- time (sec) endured until falling from rotarod apparatus ([1]; cerebellar ataxia hamsters, 500 μg/kg body weight i.p. once a day, 5-Weeks): 95 ± 8 s
- time (sec) endured until falling from rotarod apparatus ([1]; cerebellar ataxia hamsters, 500 μg/kg body weight i.p. once a day, 6-Weeks): 119 ± 4 s
- time (sec) endured until falling from rotarod apparatus ([1]; cerebellar ataxia hamsters, 500 μg/kg body weight i.p. once a day, 7-Weeks): 145 ± 7 s
- time (sec) endured until falling from rotarod apparatus ([1]; cerebellar ataxia hamsters, 500 μg/kg body weight i.p. once a day, 8-Weeks): 85 ± 8 s
- time (sec) endured until falling from rotarod apparatus ([1]; cerebellar ataxia hamsters, 500 μg/kg body weight i.p. once a day, 9-Weeks): 60 ± 7 s
- time (sec) endured until falling from rotarod apparatus ([1]; cerebellar ataxia hamsters, 500 μg/kg body weight i.p. once a day, 10-Weeks): 52 ± 5 s
- improving effect on motor coordination (in words) ([1]; cerebellar ataxia hamsters, agents of Example 1 compared among pentamethine cyanine dye compounds): particularly high improving effect on motor coordination
- Delayed days until the onset of cerebellar ataxia in hamster ([1]; from rotarod falling time vs test group 1, 20 μg/kg body weight, 5-Weeks): 0 days
- Time of falling from rotarod ([1]; hamster with cerebellar ataxia, agent of Example 1, 0.5 ml/hamster intraperitoneally once a day for 56 days): 88.4 ± 3.2 s
- Degeneration/defluxion of hippocampal pyramidal cell [2]: 1.1
- Cell survival percentage (%) (PC12-HS cells [3]; final concentration 50 ng/ml): 154 ± 8%
- Cell survival percentage (%) (PC12-HS cells [3]; final concentration 200 ng/ml): 309 ± 68%
- Cell survival percentage (%) (PC12-HS cells [3]; final concentration 800 ng/ml): 254 ± 54%
- Cell survival percentage (%) (PC12-HS cells [3]; no compound = 100%, final concentration 12.5 ng/ml): 134 ± 8%
- Action of enhancing cell growth (%) (PC12-HS cells [3]; compound concentration 25 ng/ml): 149 ± 20%
- Action of enhancing cell growth (%) (PC12-HS cells [3]; compound concentration 50 ng/ml): 181 ± 79%
- Action of enhancing cell growth (%) (PC12-HS cells [3]; compound concentration 100 ng/ml): 301 ± 65%
- Action of enhancing cell growth (%) (PC12-HS cells [3]; compound concentration 200 ng/ml): 438 ± 48%
- optimum concentration for exhibiting cell-growth-promoting action (PC12-HS cells [3]; from Table 9): 200 ng/mL
- Evaluation B: Neurite-outgrowth action (PC12-HS cells [4]; 50 μl of 400 ng/ml test sample solution per well + NGF final 5 ng/ml, 3 days): ∘ (The test sample with a neurite outgrowth rate of 30% or higher was judged to be equivalent or more (∘) compared with NK-4)
- Action on neurite outgrowth (%) (PC12-HS cells [4]; compound concentration 80 ng/ml): 25 ± 9%
- Action on neurite outgrowth (%) (PC12-HS cells [4]; compound concentration 400 ng/ml): 35 ± 9%
- Action on neurite outgrowth (%) (PC12-HS cells [4]; compound concentration 2000 ng/ml): 52 ± 4%
- Action on neurite outgrowth (%) (PC12-HS cells [4]; compound concentration 10000 ng/ml): 14 ± 6%
- Rate of cells exhibiting neurite outgrowth (%) (PC12-HS cells [4]; final concentration of compound 200 ng/ml): 22 ± 8%
- Rate of cells exhibiting neurite outgrowth (%) (PC12-HS cells [4]; final concentration of compound 400 ng/ml): 31 ± 14%
- Rate of cells exhibiting neurite outgrowth (%) (PC12-HS cells [4]; final concentration of compound 800 ng/ml): 51 ± 3%
- Rate of cells exhibiting neurite outgrowth (%) (PC12-HS cells [4]; final concentration of compound 1600 ng/ml): 49 ± 8%

Source: patent US20120035187A1 (priority 2009, published 2012)
